In the supplement of paper PMC8960247:
Structures can show the parent of a compound that is named as a salt. ± gives the standard error.

Tests used:
[1] = test system: 621-102 (TSC2-deficient); assay: relative viability vs DMSO; higher = less cytotoxic; settings: serum: 10% FBS, 72 h
[2] = test system: 621-103 (TSC2-rescued); assay: as above; settings: serum: 10% FBS, 72 h
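Note: immortalized renal angiomyolipoma cells stably carrying empty vector or TSC2, dosed in 384-well plates in DMEM, viability normalized to vehicle-treated wells within each plate.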

| SMILES | relative viability ([1]; 0.0001 µM) [%] | relative viability ([1]; 0.001 µM) [%] | relative viability ([1]; 0.01 µM) [%] | relative viability ([1]; 0.1 µM) [%] | relative viability ([1]; 1 µM) [%] | relative viability ([1]; 10 µM) [%] | relative viability ([2]; 0.0001 µM) [%] | relative viability ([2]; 0.001 µM) [%] | relative viability ([2]; 0.01 µM) [%] | relative viability ([2]; 0.1 µM) [%] | relative viability ([2]; 1 µM) [%] | relative viability ([2]; 10 µM) [%] |
| --- | --- | --- | --- | --- | --- | --- | --- | --- | --- | --- | --- | --- |
| Cc1ccc(C(=O)N(CCCN)[C@@H](c2nc3cc(Cl)ccc3c(=O)n2Cc2ccccc2)C(C)C)cc1 [Ispinesibmesilate] | 95.1 ± 1.5 | 81.2 ± 1.3 | 77.62 ± 0.57 | 63.9 ± 3 | 73 ± 1.6 | 1.22 ± 0.096 | 68.8 ± 3 | 51.76 ± 0.14 | 55.41 ± 0.1 | 49.4 ± 1.4 | 53.36 ± 0.26 | 1.19 ± 0.11 |
| CN(CCOc1ccc(CC2SC(=O)NC2=O)cc1)c1ccccn1 (stereo unspecified) [Rosiglitazone (Avandia)] | 112.8 ± 0.24 | 102 ± 8.2 | 99.4 ± 1 | 101 ± 3 | 102 ± 1.4 | 89.188 ± 0.073 | 97.1 ± 3.3 | 105 ± 2.9 | 102 ± 2.3 | 101 ± 3.8 | 105.9 ± 0.89 | 105 ± 1.4 |
| Cc1nnc(C(C)C)n1[C@H]1C[C@H]2CC[C@@H](C1)N2CC[C@H](NC(=O)C1CCC(F)(F)CC1)c1ccccc1 [Maraviroc (Selzentry)] | 94.8 ± 3.3 | 106 ± 1.5 | 107 ± 2.3 | 101 ± 2.6 | 108.3 ± 0.76 | 107 ± 1.8 | 100.6 ± 0.78 | 101 ± 2.7 | 99.264 ± 0.066 | 103 ± 2.9 | 98.1 ± 1.4 | 97.2 ± 1.1 |
| NC1(c2ccc(-c3nc4ccn5c(=O)[nH]nc5c4cc3-c3ccccc3)cc2)CCC1 [MK-2206] | 102.1 ± 0.84 | 102 ± 4.5 | 101 ± 2.4 | 98.62 ± 0.66 | 95.7 ± 1.4 | 59 ± 3.6 | 79.7 ± 4.3 | 81.98 ± 0.32 | 79.4 ± 1.1 | 77.6 ± 1.3 | 74 ± 2.4 | 25.2 ± 3.4 |
| CC(C)(C)NC(=O)[C@H]1CC[C@H]2[C@@H]3CC[C@H]4NC(=O)C=C[C@]4(C)[C@H]3CC[C@]12C [Finasteride] | 112 ± 1.9 | 114 ± 4 | 106 ± 2 | 99.13 ± 0.73 | 92.7 ± 2 | 92.5 ± 2.9 | 102.7 ± 0.88 | 101 ± 1.6 | 102.1 ± 0.43 | 101.2 ± 0.15 | 101.2 ± 0.59 | 99.6 ± 0.87 |
| CC(=O)O[C@@]12CO[C@@H]1C[C@H](O)[C@@]1(C)C(=O)[C@H](O)C3=C(C)[C@@H](OC(=O)[C@H](O)[C@@H](NC(=O)OC(C)(C)C)c4ccccc4)C[C@@](O)([C@@H](OC(=O)c4ccccc4)[C@H]21)C3(C)C [Docetaxel] | 36.3 ± 1.5 | 32.17 ± 0.058 | 33.5 ± 1.1 | 32.5 ± 0.43 | 31.8 ± 0.54 | 41.7 ± 1.1 | 57 ± 0.81 | 50.6 ± 1 | 42.9 ± 1.7 | 33.2 ± 0.49 | 35.55 ± 0.17 | 55.5 ± 2 |
| C/C(=C\c1csc(C)n1)[C@@H]1C[C@@H]2O[C@]2(C)CCC[C@H](C)[C@H](O)[C@@H](C)C(=O)C(C)(C)[C@@H](O)CC(=O)O1 [Epothilone B (EPIO906)] | 29.4 ± 1.8 | 29.3 ± 0.11 | 27.3 ± 1.2 | 32.2 ± 1.6 | 35.2 ± 2.2 | 37.6 ± 1.2 | 56.73 ± 0.32 | 48.3 ± 0.41 | 38.2 ± 1 | 35.28 ± 0.27 | 48.9 ± 1.2 | 60.1 ± 1.1 |
| CN(C)CCOC(c1ccccc1)c1ccccc1 [Diphenhydramine HCl] | 105 ± 6 | 97.7 ± 7.7 | 99.9 ± 7.9 | 110 ± 1.5 | 91.1 ± 2.4 | 101 ± 4.7 | 89.4 ± 6.2 | 82.9 ± 10 | 106.2 ± 0.96 | 97.3 ± 2.9 | 97.6 ± 1.7 | 99.2 ± 1.8 |
| Cc1ccc(-n2nc(C(C)(C)C)cc2NC(=O)Nc2ccc(OCCN3CCOCC3)c3ccccc23)cc1 [BIRB 796] | 104 ± 3.1 | 107 ± 3.4 | 98.8 ± 4.4 | 103.8 ± 0.27 | 103 ± 4.7 | 104 ± 1.4 | 98 ± 1.9 | 98.8 ± 1.3 | 97.2 ± 1 | 98.7 ± 1.7 | 94.18 ± 0.14 | 95.5 ± 1.8 |
| Cc1[nH]c2ccccc2c1CCNCc1ccc(/C=C/C(=O)NO)cc1 [LBH-589 (Panobinostat)] | 96.4 ± 2.3 | 86.7 ± 1.3 | 69.1 ± 3.1 | 41.28 ± 0.39 | 25.4 ± 1 | 11.9 ± 0.59 | 97.6 ± 1.1 | 85.6 ± 1.8 | 52.19 ± 0.31 | 4.57 ± 0.076 | 1.66 ± 0.2 | 1.1 ± 0.019 |
| COc1cc(N2CCC(N3CCN(C)CC3)CC2)ccc1Nc1ncc(Cl)c(Nc2ccccc2S(=O)(=O)C(C)C)n1 [NVP-TAE684] | 105.9 ± 0.18 | 105 ± 2.5 | 100.1 ± 0.29 | 97.9 ± 2.6 | 80.8 ± 1.4 | 3.88 ± 1.5 | 98.4 ± 2.6 | 99.6 ± 1.4 | 99.8 ± 2 | 99.27 ± 0.36 | 75.2 ± 3.5 | 1.56 ± 0.21 |
| CN1CC[C@H](c2c(O)cc(O)c3c(=O)cc(-c4ccccc4Cl)oc23)[C@H](O)C1 [Flavopiridol (Alvocidib)] | 104 ± 1.3 | 104.1 ± 0.59 | 95.5 ± 5 | 45.4 ± 1.9 | 11.3 ± 0.76 | 11.7 ± 0.13 | 103 ± 4.3 | 100.4 ± 0.89 | 102.2 ± 0.86 | 55.26 ± 0.43 | 17.8 ± 0.22 | 21.81 ± 0.19 |
| CC(C)[C@H](C(=O)Nc1ccc(C(=O)NO)cc1)c1ccccc1 [AR-42 (HDAC-42)] | 94.68 ± 0.44 | 109 ± 2.2 | 90.8 ± 3.5 | 82.4 ± 0.9 | 61.7 ± 2.2 | 41 ± 1.6 | 109 ± 2 | 98.16 ± 0.28 | 102 ± 6.3 | 83.4 ± 3.6 | 41.07 ± 0.079 | 3.41 ± 0.081 |
| CNCCC(Oc1ccc(C(F)(F)F)cc1)c1ccccc1 (stereo unspecified) [Fluoxetine HCl] | 101.3 ± 0.38 | 100 ± 1.8 | 109 ± 2.5 | 107 ± 2.1 | 99.3 ± 1.1 | 86.9 ± 2.2 | 100 ± 4.3 | 109 ± 2 | 106 ± 1.8 | 99.6 ± 1.9 | 104 ± 1.3 | 70.9 ± 2 |
| Cc1cc(Nc2nc(N[C@@H](C)c3ccc(F)cc3)c(C#N)cc2F)n[nH]1 [AZ 960] | 99.6 ± 4 | 107 ± 3.6 | 103 ± 4.5 | 104 ± 2.7 | 47.1 ± 3.6 | 44.9 ± 4.3 | 99.9 ± 3.1 | 101 ± 1.2 | 94.7 ± 2.2 | 92.44 ± 0.84 | 62.82 ± 0.16 | 16.3 ± 0.85 |
| C/C(=C\c1csc(C)n1)[C@@H]1C[C@@H]2O[C@@H]2CCC[C@H](C)[C@H](O)[C@@H](C)C(=O)C(C)(C)[C@@H](O)CC(=O)O1 [Epothilone A] | 63.5 ± 3 | 47 ± 4 | 31.1 ± 0.38 | 27.3 ± 1.1 | 30.4 ± 0.53 | 34.2 ± 0.53 | 87.3 ± 1.9 | 59.1 ± 2.4 | 44 ± 1.4 | 30.8 ± 0.67 | 26.7 ± 0.62 | 50.59 ± 0.26 |
| N#CC1(c2ccc(NC(=O)c3cccnc3NCc3ccncc3)cc2)CCCC1 [Apatinib] | 101 ± 3.1 | 109.9 ± 0.77 | 111.8 ± 0.42 | 111 ± 4.4 | 102 ± 4.9 | 101.34 ± 0.059 | 111.1 ± 1.1 | 103 ± 3.9 | 110 ± 2.4 | 107 ± 2.4 | 107 ± 7.4 | 103.7 ± 0.61 |
| OCCN(CCO)c1nc(N2CCCCC2)c2nc(N(CCO)CCO)nc(N3CCCCC3)c2n1 [Dipyridamole] | 102 ± 3 | 98.3 ± 2.2 | 101.5 ± 1 | 95.2 ± 2.5 | 96.7 ± 2.7 | 93.4 ± 8.5 | 101 ± 2.4 | 103.1 ± 0.96 | 103 ± 2.1 | 104 ± 5.4 | 101 ± 6.3 | 101 ± 1.5 |
